For 13 compounds, AC50 results are on record in ChEMBL document CHEMBL5291721, “A preclinical secondary pharmacology resource illuminates target-adverse drug reaction associations of marketed drugs” (Nat Commun, 2023).

The target of assay [1] is D(3) dopamine receptor (Homo sapiens, UniProt P35462).
Assay [2] addresses cGMP-inhibited 3',5'-cyclic phosphodiesterase 3A (Homo sapiens, UniProt Q14432). The format is functional.
Assay [3] addresses T1, Muscarinic acetylcholine receptor M2 (Homo sapiens, UniProt P08172).
T1 sequence (P08172 whole entry): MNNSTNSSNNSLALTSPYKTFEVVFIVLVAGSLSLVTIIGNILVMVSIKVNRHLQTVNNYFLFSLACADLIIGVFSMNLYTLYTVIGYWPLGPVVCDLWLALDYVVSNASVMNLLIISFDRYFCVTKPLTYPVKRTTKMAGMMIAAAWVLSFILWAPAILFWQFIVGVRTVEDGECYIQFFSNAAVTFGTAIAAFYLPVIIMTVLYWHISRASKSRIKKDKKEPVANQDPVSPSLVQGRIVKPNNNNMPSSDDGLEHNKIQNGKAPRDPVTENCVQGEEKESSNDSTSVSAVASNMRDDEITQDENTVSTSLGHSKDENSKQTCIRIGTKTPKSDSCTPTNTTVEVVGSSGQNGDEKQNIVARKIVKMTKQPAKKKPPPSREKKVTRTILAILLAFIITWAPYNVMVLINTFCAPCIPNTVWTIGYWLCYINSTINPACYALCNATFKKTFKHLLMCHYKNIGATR

Assay [4] concerns the target T2, Muscarinic acetylcholine receptor M1 (Homo sapiens, UniProt P11229).
T2 sequence (P11229 whole entry): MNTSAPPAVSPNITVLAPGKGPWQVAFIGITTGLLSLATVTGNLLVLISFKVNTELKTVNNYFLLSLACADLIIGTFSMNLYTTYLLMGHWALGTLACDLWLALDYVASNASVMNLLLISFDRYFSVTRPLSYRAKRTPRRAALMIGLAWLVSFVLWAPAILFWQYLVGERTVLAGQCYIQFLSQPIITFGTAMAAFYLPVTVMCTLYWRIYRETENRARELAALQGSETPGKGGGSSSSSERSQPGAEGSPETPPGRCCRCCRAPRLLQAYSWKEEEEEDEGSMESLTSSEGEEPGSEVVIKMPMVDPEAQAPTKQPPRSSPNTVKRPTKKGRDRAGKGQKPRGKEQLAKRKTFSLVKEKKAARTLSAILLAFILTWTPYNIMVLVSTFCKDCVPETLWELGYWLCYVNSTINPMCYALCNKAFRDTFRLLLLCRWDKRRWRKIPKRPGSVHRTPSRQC
In kind it is functional, cell-based.

Assay [5] deals with 5-hydroxytryptamine receptor 2B (Homo sapiens, UniProt P41595). In kind it is functional, cell-based.
Assay [6] has as its target T3, Alpha-1A adrenergic receptor (Homo sapiens, UniProt P35348).
T3 sequence (P35348 whole entry): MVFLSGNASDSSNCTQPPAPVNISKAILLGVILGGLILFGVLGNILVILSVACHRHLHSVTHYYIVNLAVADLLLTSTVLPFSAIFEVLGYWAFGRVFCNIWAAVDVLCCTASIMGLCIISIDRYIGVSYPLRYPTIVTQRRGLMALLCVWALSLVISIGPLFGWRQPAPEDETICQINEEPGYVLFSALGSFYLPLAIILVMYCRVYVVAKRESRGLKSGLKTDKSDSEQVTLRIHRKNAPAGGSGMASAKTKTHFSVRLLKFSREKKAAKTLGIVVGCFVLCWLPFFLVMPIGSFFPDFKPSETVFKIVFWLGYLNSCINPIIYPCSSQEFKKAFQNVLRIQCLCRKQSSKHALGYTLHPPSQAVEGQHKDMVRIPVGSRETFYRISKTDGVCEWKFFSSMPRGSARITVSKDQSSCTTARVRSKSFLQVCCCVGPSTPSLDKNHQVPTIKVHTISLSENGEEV
In kind it is functional, cell-based.
Further: assay procedure not described here.

Sequence of D(3) dopamine receptor (P35462 whole entry): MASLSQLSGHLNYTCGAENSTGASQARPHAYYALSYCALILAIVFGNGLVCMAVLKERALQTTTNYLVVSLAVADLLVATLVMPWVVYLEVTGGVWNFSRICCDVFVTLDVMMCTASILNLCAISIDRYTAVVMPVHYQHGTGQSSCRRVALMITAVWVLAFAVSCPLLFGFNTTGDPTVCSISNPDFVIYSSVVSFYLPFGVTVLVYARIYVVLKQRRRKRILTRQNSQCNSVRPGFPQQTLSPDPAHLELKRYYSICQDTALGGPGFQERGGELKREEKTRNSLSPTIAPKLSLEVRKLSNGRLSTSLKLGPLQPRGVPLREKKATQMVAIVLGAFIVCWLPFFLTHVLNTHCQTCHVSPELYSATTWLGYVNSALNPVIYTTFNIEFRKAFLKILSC
Sequence of cGMP-inhibited 3',5'-cyclic phosphodiesterase 3A (Q14432 whole entry): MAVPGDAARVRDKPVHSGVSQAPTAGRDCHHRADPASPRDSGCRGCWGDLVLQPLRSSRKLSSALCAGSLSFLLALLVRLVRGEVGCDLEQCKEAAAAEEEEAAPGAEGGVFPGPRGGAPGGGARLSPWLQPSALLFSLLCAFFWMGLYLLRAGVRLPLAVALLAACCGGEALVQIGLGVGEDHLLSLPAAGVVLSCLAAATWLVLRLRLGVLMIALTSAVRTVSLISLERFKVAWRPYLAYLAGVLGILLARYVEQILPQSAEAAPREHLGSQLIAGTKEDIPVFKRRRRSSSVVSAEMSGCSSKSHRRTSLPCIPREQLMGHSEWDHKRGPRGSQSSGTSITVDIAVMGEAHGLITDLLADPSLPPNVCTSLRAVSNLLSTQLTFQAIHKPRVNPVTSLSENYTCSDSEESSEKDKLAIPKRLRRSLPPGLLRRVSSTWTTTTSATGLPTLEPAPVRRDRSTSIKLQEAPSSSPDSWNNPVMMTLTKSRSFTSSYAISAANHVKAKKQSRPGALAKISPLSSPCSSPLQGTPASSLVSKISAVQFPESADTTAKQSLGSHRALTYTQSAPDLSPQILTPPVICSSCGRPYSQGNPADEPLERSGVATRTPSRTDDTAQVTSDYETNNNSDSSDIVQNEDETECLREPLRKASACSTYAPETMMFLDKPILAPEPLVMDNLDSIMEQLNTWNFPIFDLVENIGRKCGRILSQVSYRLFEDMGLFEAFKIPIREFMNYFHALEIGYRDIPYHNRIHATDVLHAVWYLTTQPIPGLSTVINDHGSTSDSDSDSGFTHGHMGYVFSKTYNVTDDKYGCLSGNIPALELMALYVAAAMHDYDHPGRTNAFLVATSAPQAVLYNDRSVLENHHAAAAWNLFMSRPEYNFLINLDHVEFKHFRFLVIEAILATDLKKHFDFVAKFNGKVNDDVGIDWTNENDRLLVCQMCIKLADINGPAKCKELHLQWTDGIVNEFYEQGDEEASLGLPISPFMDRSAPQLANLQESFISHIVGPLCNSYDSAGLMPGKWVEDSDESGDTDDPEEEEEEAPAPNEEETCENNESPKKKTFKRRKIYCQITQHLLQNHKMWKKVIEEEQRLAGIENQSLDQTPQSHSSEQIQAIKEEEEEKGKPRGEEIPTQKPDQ
Sequence of 5-hydroxytryptamine receptor 2B (P41595 whole entry): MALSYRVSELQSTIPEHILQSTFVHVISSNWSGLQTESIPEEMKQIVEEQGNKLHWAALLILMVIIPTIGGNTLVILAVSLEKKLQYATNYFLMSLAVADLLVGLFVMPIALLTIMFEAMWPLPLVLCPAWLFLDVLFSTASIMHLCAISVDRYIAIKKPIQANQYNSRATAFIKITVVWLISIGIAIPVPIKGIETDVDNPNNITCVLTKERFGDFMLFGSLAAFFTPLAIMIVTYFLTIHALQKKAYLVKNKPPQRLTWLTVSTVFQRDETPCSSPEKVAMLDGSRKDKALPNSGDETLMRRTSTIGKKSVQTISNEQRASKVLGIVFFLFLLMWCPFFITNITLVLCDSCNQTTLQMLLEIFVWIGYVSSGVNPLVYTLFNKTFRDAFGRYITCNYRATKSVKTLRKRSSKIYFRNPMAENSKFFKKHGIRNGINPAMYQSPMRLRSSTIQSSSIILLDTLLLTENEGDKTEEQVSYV

In the case of `NC(=O)OCC(O)COc1ccc(Cl)cc1` (stereo not drawn) [CHLORPHENESIN CARBAMATE], the AC50 in assay [1], in assay [2], in assay [3], in assay [4], in assay [5] and in assay [6] was greater than 30 µM in each case.

Consider `NCC(CC(=O)O)c1ccccc1` (stereo not drawn) [PHENIBUT], for which the AC50 in assay [1], in assay [2], in assay [3], in assay [4], in assay [5] and in assay [6] was greater than 30 µM each time.

For `C=CCSCC1Nc2cc(Cl)c(S(N)(=O)=O)cc2S(=O)(=O)N1` (stereo not drawn) [ALTHIAZIDE], the AC50 in assay [1], in assay [2], in assay [3], in assay [4], in assay [5] and in assay [6] was greater than 30 µM each time.

As to `CN1C(=O)/C(=N\NC(N)=S)c2ccccc21` [METHISAZONE], the AC50 is greater than 30 µM in assay [1]; greater than 3 µM in assay [2]; greater than 30 µM in assay [3]; greater than 3 µM in assay [4]; greater than 30 µM in assay [5]; greater than 30 µM in assay [6].

Regarding `CCN(CC)C(=S)S` [DITIOCARB], the AC50 in assay [1] is greater than 30 µM; in assay [2], greater than 30 µM; in assay [3], greater than 30 µM; in assay [4] it was greater than 1 µM; in assay [5] it was greater than 30 µM; in assay [6] it was greater than 30 µM.

For `COc1cc(N2CCC(N3CCN(C)CC3)CC2)ccc1Nc1ncc(Cl)c(Nc2ccccc2P(C)(C)=O)n1` [BRIGATINIB], the AC50 in assay [1], in assay [2], in assay [3], in assay [4], in assay [5] and in assay [6] was greater than 30 µM each time.

As to `COc1cc2c(cc1OC)CC(=O)N(CCCN(C)C[C@H]1Cc3cc(OC)c(OC)cc31)CC2` [IVABRADINE], the AC50 in assay [1] is 2.61 µM; in assay [2] it was greater than 30 µM; in assay [3], 3.35 µM; in assay [4] it was greater than 30 µM; in assay [5], greater than 30 µM; in assay [6] it was greater than 30 µM.

For `CN(C)CCOC(c1ccccc1)c1ccc(Br)cc1` (stereo not drawn) [BROMODIPHENHYDRAMINE], the AC50 in assay [1] is 2.68 µM; in assay [2] it was greater than 30 µM; in assay [3] it was 1.42 µM; in assay [4] it was 1.49 µM; in assay [5] it was greater than 30 µM; in assay [6], greater than 30 µM.

On to `CCN(CCCc1ccccc1)CCCc1ccccc1` [ALVERINE], for which the AC50 in assay [1] is 1.96 µM; in assay [2], greater than 30 µM; in assay [3] it was 0.134 µM; in assay [4], 0.198 µM; in assay [5], greater than 30 µM; in assay [6] it was greater than 30 µM.

For the compound `c1ccc2c(c1)CCc1ccccc1N2C1CN2CCC1CC2` (stereo not drawn) [QUINUPRAMINE], the AC50 in assay [1] is 6.47 µM; in assay [2], greater than 30 µM; in assay [3], 0.0329 µM; in assay [4], 0.0076 µM; in assay [5] it was greater than 30 µM; in assay [6] it was greater than 30 µM.

With `CC1=CCC(C(C)(C)O)CC1O` (stereo not drawn) [SOBREROL], the AC50 in assay [1] was greater than 30 µM; in assay [2] it was greater than 10 µM; in assay [3], greater than 30 µM; in assay [4], greater than 30 µM; in assay [5], greater than 30 µM; in assay [6], greater than 30 µM.

Consider `CCOC(=O)[C@H](CCc1ccccc1)N[C@@H](C)C(=O)N(CC(=O)O)C1Cc2ccccc2C1`, for which the concentration at half-maximal activity (AC50) in assay [1], in assay [2], in assay [3], in assay [4], in assay [5] and in assay [6] was greater than 30 µM each time.

For `CC(C)N(CCNC(=O)CN1CCCC1=O)C(C)C`, the AC50 in assay [1], in assay [2], in assay [3], in assay [4], in assay [5] and in assay [6] was greater than 30 µM in each case.
